Laboratory results reported in patent US11814364B2, “Pyridine N-oxide derivatives useful as factor XIa inhibitors” (Janssen Pharmaceutica NV, priority 2021, dated 2023).

What follows are compounds tested against human plasma kallikrein (Homo sapiens, UniProt P03952) (assay: Kallikrein inhibition FLINT assay with quenched AMC peptide substrate Z-Gly-Pro-Arg-AMC (end point EP or kinetic KIN reads)). Settings: kinetic reads at 5 min intervals over 30 min; read-out: Kallikrein (KIN) IC50.
Assay type: biochemical
Outline: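 Enzyme and compound were preincubated 30 min before adding 50 μM AMC substrate in pH 7.5 Tris/NaCl/CaCl2/BSA/CHAPS buffer. AMC release was read at 30 min endpoint or every 5 min.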

Sequence of human plasma kallikrein (P03952 391-638 limits assumed): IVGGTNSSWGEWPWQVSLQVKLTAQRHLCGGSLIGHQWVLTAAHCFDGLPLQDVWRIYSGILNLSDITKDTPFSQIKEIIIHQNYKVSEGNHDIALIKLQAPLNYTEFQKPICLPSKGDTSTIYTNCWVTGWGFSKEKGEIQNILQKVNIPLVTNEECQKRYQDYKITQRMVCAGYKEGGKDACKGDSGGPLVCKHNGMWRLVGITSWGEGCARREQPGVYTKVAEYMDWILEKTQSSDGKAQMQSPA
Sequence of human plasma kallikrein (P03952 20-390 partner limits assumed): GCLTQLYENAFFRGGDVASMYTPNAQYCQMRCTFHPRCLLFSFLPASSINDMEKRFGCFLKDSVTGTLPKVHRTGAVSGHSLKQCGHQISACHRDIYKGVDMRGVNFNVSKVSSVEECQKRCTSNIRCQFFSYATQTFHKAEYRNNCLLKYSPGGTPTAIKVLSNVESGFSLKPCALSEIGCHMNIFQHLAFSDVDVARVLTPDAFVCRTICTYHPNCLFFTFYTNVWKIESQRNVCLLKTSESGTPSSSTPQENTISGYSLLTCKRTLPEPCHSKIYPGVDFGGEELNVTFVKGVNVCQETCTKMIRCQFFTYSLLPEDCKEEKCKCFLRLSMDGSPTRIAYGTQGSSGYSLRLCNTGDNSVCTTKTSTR

| IC50 [nM] | Compound |
| --- | --- |
| 780 | [O-][n+]1cc(-c2c(-n3cnnn3)ccc(Cl)c2F)ccc1C(CC1CC1)n1cc(-c2ccn[nH]2)cn1 (stereo not drawn) [Example P467] |
| 287 | [O-][n+]1cc(-c2c(-n3cnnn3)ccc(Cl)c2F)ccc1C(CCOC(F)F)n1cc(-c2cn(C(F)F)nn2)cn1 (single isomer, unassigned) [Example P660] |
| 231 | Cn1ncnc1-c1cnn(C(CCOC(F)F)c2ccc(-c3c(N)ccc(Cl)c3F)c[n+]2[O-])c1 (stereo not drawn) [Example Q45] |
| 6.3 | COC(=O)Nc1ccc(-c2cnn(C(Cn3cccn3)c3ccc(-c4c(-n5cnnn5)ccc(Cl)c4F)c[n+]3[O-])c2)cc1 (stereo not drawn) [Example P214] |
| 5.8 | NC(=O)c1ccc(-c2cnn(C(CCOC(F)F)c3ccc(-c4c(-n5cnnn5)ccc(Cl)c4F)c[n+]3[O-])c2)cc1F (single isomer, unassigned) [Example P929] |
| 7.5 | [O-][n+]1cc(-c2c(-n3cnnn3)ccc(Cl)c2F)ccc1[C@@H](Cc1ccc(F)cc1)n1cc(-c2ccn(C(F)F)n2)cn1 [Example P569] |
| 4.7 | NC(=O)c1ccnn1CC(c1ccc(-c2c(C(F)F)ccc(Cl)c2F)c[n+]1[O-])n1cc(-c2ccnc(C(F)(F)F)c2)cn1 (single isomer, unassigned) [Example Q27] |
| 734 | [O-][n+]1cc(-c2c(-n3cc(Cl)nn3)ccc(Cl)c2F)ccc1[C@@H](Cn1cc(OC(F)F)cn1)n1cc(-c2cn(C(F)F)nn2)cn1 [Example P655] |
| 291 | NC(=O)C1CC1CC(c1ccc(-c2cc(Cl)ccc2-n2cnnn2)c[n+]1[O-])n1cc(-c2ccc(C(=O)O)cc2)cn1 (stereo not drawn) [Example P113] |
| > 100 | CC1CC1CC(c1ccc(-c2c(-n3cnnn3)ccc(Cl)c2F)c[n+]1[O-])n1cc(-c2ncnn2C(F)F)cn1 (stereo not drawn) [Example P765] |
| 39.2 | [O-][n+]1cc(-c2c(-n3cc(Cl)nn3)ccc(Cl)c2F)ccc1[C@@H](CCOC(F)F)n1cc(-c2cnnn2C(F)F)cn1 [Example P668] |
| 140 | Cn1ccc(CC(c2ccc(-c3c(-n4cnnn4)ccc(Cl)c3F)c[n+]2[O-])n2cc(-c3ccnc(C(F)(F)F)c3)cn2)n1 (single isomer, unassigned) [Example P378] |
| 249 | COc1cnc(F)c(-c2cnn(C(CC3CC3)c3ccc(-c4c(-n5cnnn5)ccc(Cl)c4F)c[n+]3[O-])c2)c1 (stereo not drawn) [Example P75] |
| 7.1 | COc1ccc(CC(c2ccc(-c3c(-n4cnnn4)ccc(Cl)c3F)c[n+]2[O-])n2cc(-c3ccn(C)c(=O)c3)cn2)cc1 (stereo not drawn) [Example P134] |
| 591 | O=C(O)C1CCCN(C(=O)C2CC2CC(c2ccc(-c3c(-n4cnnn4)ccc(Cl)c3F)c[n+]2[O-])n2cc(-c3ccccc3)cn2)C1 (stereo not drawn) [Example P224] |
| 151 | [O-][n+]1cc(-c2c(-n3cc(Cl)nn3)ccc(Cl)c2F)ccc1[C@@H](Cn1cccn1)n1cc(-c2cnnn2C(F)F)cn1 [Example P685] |
| 222 | Cc1cc(C(N)=O)sc1-c1cnn(C(CC2CC2)c2ccc(-c3c(-n4cc(C(F)(F)F)nn4)ccc(Cl)c3F)c[n+]2[O-])c1 (single isomer, unassigned) [Example P957] |
| 228 | Nc1ncc(-c2cnn(C(CC3CC3)c3ccc(-c4c(-n5cnnn5)ccc(Cl)c4F)c[n+]3[O-])c2)cc1F (single isomer, unassigned) [Example P194] |
| 10.9 | COC(=O)Nc1ccc(-c2cnn(C(Cn3cccn3)c3ccc(-c4c(-n5cnnn5)ccc(Cl)c4F)c[n+]3[O-])c2)cc1 (single isomer, unassigned) [Example P273] |
| 3.2 | COCc1ccn(CC(c2ccc(-c3c(-n4cnnn4)ccc(Cl)c3F)c[n+]2[O-])n2cc(-c3ccnc(C(F)(F)F)c3)cn2)n1 (single isomer, unassigned) [Example P441] |
| 15.3 | [O-][n+]1cc(-c2cc(Cl)ccc2-n2cnnn2)ccc1C(Cc1ccc(Cl)cc1)n1cc(-c2ccncc2)cn1 (stereo not drawn) [Example P171] |
| 70.2 | COCc1ccn(CC(c2ccc(-c3c(-n4cnnn4)ccc(Cl)c3F)c[n+]2[O-])n2cc(-c3ccnc(C(F)(F)F)c3)cn2)n1 (single isomer, unassigned) [Example P440] |
| 9.7 | CN(CC(c1ccc(-c2c(-n3cnnn3)ccc(Cl)c2F)c[n+]1[O-])n1cc(-c2ccnc(C(F)(F)F)c2)cn1)C(=O)c1ccn(C)c(=O)c1 (single isomer, unassigned) [Example P435] |
| 187 | Cn1ncnc1-c1cnn(C(Cc2ncco2)c2ccc(-c3c(-n4cc(C(F)(F)F)nn4)ccc(Cl)c3F)c[n+]2[O-])c1 (stereo not drawn) [Example P925] |
| 0.2 | NC(=O)c1ccc(-c2cnn(C(Cc3ccn(C(F)F)n3)c3ccc(-c4c(-n5cc(Cl)nn5)ccc(Cl)c4F)c[n+]3[O-])c2)cc1 (single isomer, unassigned) [Example P911] |
| 1.8 | O=C(O)C1CCN(C(=O)c2ccn(CC(c3ccc(-c4c(-n5cnnn5)ccc(Cl)c4F)c[n+]3[O-])n3cc(-c4ccncc4)cn3)n2)CC1 (stereo not drawn) [Example P444] |
| 38.5 | CCC(c1cc(OC)c(-c2cc(Cl)ccc2-n2cc(C(F)(F)F)nn2)c[n+]1[O-])n1cc(-c2ncnn2C(F)F)cn1 (single isomer, unassigned) [Example P923] |

| IC50 [nM] | Compound |
| --- | --- |
| 68.4 | CC(=O)N(C)CC(c1ccc(-c2c(-n3cnnn3)ccc(Cl)c2F)c[n+]1[O-])n1cc(-c2ccnc(C(F)(F)F)c2)cn1 (single isomer, unassigned) [Example P404] |
| 11 | COc1cc(C(Cc2ccn(C(F)F)n2)n2cc(-c3ccc(C(=O)O)c(F)c3)cn2)[n+]([O-])cc1-c1c(C(F)F)ccc(Cl)c1F (stereo not drawn) [Example Q74] |
| 23.8 | Cn1nnc(F)c1-c1cnn(C(Cc2ccn(C(F)F)n2)c2ccc(-c3c(-n4cc(Cl)nn4)ccc(Cl)c3F)c[n+]2[O-])c1 (stereo not drawn) [Example P797] |
| 303 | Cc1nccn1-c1cnn(C(CCOC(F)F)c2ccc(-c3c(-n4cc(OC(F)F)nn4)ccc(Cl)c3F)c[n+]2[O-])c1 (single isomer, unassigned) [Example P826] |
| 22.9 | COC(=O)N(C)CC(c1ccc(-c2c(-n3cnnn3)ccc(Cl)c2F)c[n+]1[O-])n1cc(-c2ccc(N)nc2F)cn1 (stereo not drawn) [Example P482] |
| 39.6 | Cn1ncnc1-c1cnn([C@H](CCOC(F)F)c2ccc(-c3c(-n4cc(Cl)nn4)ccc(Cl)c3F)c[n+]2[O-])c1 [Example P722] |
| 380 | [O-][n+]1cc(-c2c(-n3cc(Cl)nn3)ccc(Cl)c2F)ccc1C(Cn1cccn1)n1cc(-c2cn(C(F)F)nn2)cn1 (single isomer, unassigned) [Example P664] |
| 0.9 | NC(=O)c1ccc(-c2cnn(C(CCOC(F)F)c3ccc(-c4c(-n5cnnn5)ccc(Cl)c4F)c[n+]3[O-])c2)cc1F (single isomer, unassigned) [Example P928] |
| 51 | Nc1ccc(-c2cnn(C(Cn3cccn3)c3ccc(-c4c(-n5cnnn5)ccc(Cl)c4F)c[n+]3[O-])c2)c(F)n1 (single isomer, unassigned) [Example P315] |
| 29.1 | COC(=O)Nc1ccc(-c2cnn(C(CC3CCCCO3)c3ccc(-c4c(-n5cnnn5)ccc(Cl)c4F)c[n+]3[O-])c2)cc1 (single isomer, unassigned) [Example P115] |
| 123 | COC(=O)Nc1ccc(-c2cnn(C(CC3CCCC3)c3ccc(-c4c(-n5cnnn5)ccc(Cl)c4F)c[n+]3[O-])c2)cc1 (stereo not drawn) [Example P110] |
| 9 | Cc1cc(-c2cnn(C(Cn3cccn3)c3ccc(-c4c(-n5cnnn5)ccc(Cl)c4F)c[n+]3[O-])c2)ccn1 (stereo not drawn) [Example P310] |
| 58.1 | O=C(NC1CC1)c1ccc(-c2cnn(C(CC3CCCCO3)c3ccc(-c4c(-n5cnnn5)ccc(Cl)c4F)c[n+]3[O-])c2)cc1 (single isomer, unassigned) [Example P143] |
| 63.3 | COC(=O)Nc1ccc(-c2cnn(C(CC3CCCO3)c3ccc(-c4c(-n5cnnn5)ccc(Cl)c4F)c[n+]3[O-])c2)cc1 (stereo not drawn) [Example P203] |
| 767 | Cc1nc(N)ccc1-c1cnn(C(CCOC(F)F)c2ccc(-c3c(-n4cnnn4)ccc(Cl)c3F)c[n+]2[O-])c1 (single isomer, unassigned) [Example P343] |
| 2.7 | NC(=O)c1ccc(-c2cnn(C(CN3CCCC3=O)c3ccc(-c4c(-n5cc(C(F)(F)F)nn5)ccc(Cl)c4F)c[n+]3[O-])c2)cc1F (single isomer, unassigned) [Example P937] |
| 2.2 | O=C(O)c1ccc(-c2cnn(C(Cc3ccn(C(F)F)n3)c3ccc(-c4c(-n5cc(C(F)(F)F)nn5)ccc(Cl)c4F)c[n+]3[O-])c2)cc1 (single isomer, unassigned) [Example P900] |
| 19 | N#Cc1cc(-c2cnn(C(CCOC(F)F)c3ccc(-c4c(-n5cnnn5)ccc(Cl)c4F)c[n+]3[O-])c2)ccn1 (stereo not drawn) [Example P458] |
| 3.5 | [O-][n+]1cc(-c2c(-n3cnnn3)ccc(Cl)c2F)ccc1C(CCOC(F)F)n1cc(-c2ccncc2F)cn1 (stereo not drawn) [Example P385] |
| 334 | [O-][n+]1cc(-c2c(-n3cc(Cl)nn3)ccc(Cl)c2F)ccc1[C@@H](CCOC(F)F)n1cc(-c2nncn2C(F)F)cn1 [Example P692] |
| 20.6 | COc1cc(C(CC2CC2)n2cc(-c3cnn(C)c(=O)c3)cn2)[n+]([O-])cc1-c1c(-n2cnnn2)ccc(Cl)c1F (stereo not drawn) [Example P66] |
| 841 | Cn1cc(-c2cnn(C(CC3CC3)c3ccc(-c4c(-n5cnnn5)ccc(Cl)c4F)c[n+]3[O-])c2)cn1 (stereo not drawn) [Example P288] |
| 58.9 | COc1cc(C(CC2CC2)n2cc(-c3ncnn3C(F)F)cn2)[n+]([O-])cc1-c1c(C#N)ccc(Cl)c1F (stereo not drawn) [Example Q56] |
| 13.4 | [O-][n+]1cc(-c2c(-n3cnnn3)ccc(Cl)c2F)ccc1C(Cn1cc(F)cn1)n1cc(-c2ccnc(F)c2)cn1 (stereo not drawn) [Example P352] |
| 220 | [O-][n+]1cc(-c2c(-n3cnnn3)ccc(Cl)c2F)ccc1C(CC1CC1)n1cc(-c2scnc2C2CC2)cn1 (stereo not drawn) [Example P535] |
| 170 | [O-][n+]1cc(-c2c(-n3cnnn3)ccc(Cl)c2F)ccc1C(CCOC(F)F)n1cc(-c2cn(C(F)F)nn2)cn1 (single isomer, unassigned) [Example P659] |
| 13.8 | [2H]C([2H])([2H])OCCC(c1ccc(-c2c(-n3cnnn3)ccc(Cl)c2F)c[n+]1[O-])n1cc(-c2ccc(NC(=O)OC)cc2)cn1 (stereo not drawn) [Example P289] |
